{"source": "paper PMC10054553", "about": "“Development of the First ^18F-Labeled Radiohybrid-Based Minigastrin Derivative with High Target Affinity and Tumor Accumulation by Substitution of the Chelating Moiety” (Pharmaceutics, 2023)", "test": "Biodistribution in AR42J tumor-bearing CB17-SCID mice", "type": "in vivo", "conditions": "mouse; for tissue to tissue ratio at 24 h: both sexes, CB17-SCID, total radioactivity; for tissue to tissue ratio at 24 h / tissue uptake at 24 h: 24 h p.i.; for tissue uptake at 1 h: 1 h p.i.", "procedure": "All animal experiments were conducted in accordance with general animal welfare regulations in Germany (German animal protection act, in the edition of the announcement, dated 18 May 2006, as amended by Article 280 of 19 June 2020, approval no. ROB-55.2-1-2532.Vet_02-18-109 by the General Administration of Upper Bavaria) and the institutional guidelines for the care and use of animals. CB17-SCID mice of both genders and aged 2–12 months (Charles River Laboratories International Inc., Sulzfeld, Germany) were allowed to acclimate at the in-house animal facility for at least one week before inoculation was performed. Tumor xenografts were established as previously reported. Exclusion criteria for animals from an experiment were either weight loss higher than 20%, a tumor size above 1500 mm^3, an ulceration of the tumor, respiratory distress or a change of behavior. None of these criteria applied to any animal from the experiment. Neither randomization nor blinding was applied in the allocation of the experiments. Health status is SPF according to FELASA recommendation.\nBiodistribution studies (n = 4) and µSPECT/CT as well as µPET/CT imaging (using a MILabs VECTor^4 small-animal SPECT/PET/OI/CT device, MILabs, Utrecht, The Netherlands) at 1 and 24 h p.i. were carried out as previously published. For all ^177Lu-labeled compounds, approximately 2–3 MBq (100 pmol)—and for the ^18F-labeled analog, approximately 7 MBq (100 pmol)—were administered. For all competition studies, 2.90 mg/kg (40 nmol) of [^natLu]Lu-DOTA-MGS5 (10^−3 M in phosphate-buffered saline) were co-administered.", "key": {"[1]": {"conditions": "adrenal, 100 pmol, 100 pmol, n = 4, read-out: Adrenal activity"}, "[2]": {"conditions": "blood, 100 pmol, 100 pmol, n = 4, read-out: Blood activity"}, "[3]": {"conditions": "bone, 100 pmol, 100 pmol, n = 4, read-out: Bone activity"}, "[4]": {"conditions": "heart, 100 pmol, 100 pmol, n = 4, read-out: Heart activity"}, "[5]": {"conditions": "intestine, 100 pmol, 100 pmol, n = 4, read-out: Intestine activity"}, "[6]": {"conditions": "liver, 100 pmol, 100 pmol, n = 4, read-out: Liver activity"}, "[7]": {"conditions": "lung, 100 pmol, 100 pmol, n = 4, read-out: Lung activity"}, "[8]": {"conditions": "muscle, 100 pmol, 100 pmol, n = 4, read-out: Muscle activity"}}, "note": "Where two headings read alike, the source gives them in different places.", "data": [{"compound": "CCCC[C@H](NC(=O)[C@H](Cc1c[nH]c2ccccc12)NC(=O)CNC(=O)[C@H](Cc1ccc(O)cc1)NC(=O)[C@H](C)NC(=O)CC[C@@H](NC(=O)CC[C@@H](NC(=O)CC[C@@H](NC(=O)CC[C@@H](NC(=O)CC[C@@H](NC(=O)CC[C@@H](NC(=O)CC[C@@H](NC(=O)CC[C@@H](NC(=O)[C@@H](CNC(=O)c1ccc([Si](F)(C(C)(C)C)C(C)(C)C)cc1)NC(=O)CN1CCN(CC(=O)O)CCN(CC(=O)O)CCN(CC(=O)O)CC1)C(=O)O)C(=O)O)C(=O)O)C(=O)O)C(=O)O)C(=O)O)C(=O)O)C(=O)O)C(=O)N[C@@H](CC(=O)O)C(=O)N[C@@H](Cc1ccccc1)C(N)=O", "note": "[[^19F]F-[^177Lu]Lu-DOTA-rhCCK-18, metal not drawn]", "values": [{"measurement": "tissue to tissue ratio at 24 h", "setting": "tumor / adrenal, 100 pmol, n = 4, read-out: Tumor-to-background ratio, Adrenal", "result": "73.3 ± 13.4"}, {"measurement": "tissue to tissue ratio at 24 h", "setting": "tumor / blood, 100 pmol, n = 4, read-out: Tumor-to-background ratio, Blood", "result": "1630 ± 823"}, {"measurement": "tissue to tissue ratio at 24 h", "setting": "tumor / bone, 100 pmol, n = 4, read-out: Tumor-to-background ratio, Bone", "result": "151 ± 48"}, {"measurement": "tissue to tissue ratio at 24 h", "setting": "tumor / heart, 100 pmol, n = 4, read-out: Tumor-to-background ratio, Heart", "result": "312 ± 58"}, {"measurement": "tissue to tissue ratio at 24 h", "setting": "tumor / intestine, 100 pmol, n = 4, read-out: Tumor-to-background ratio, Intestine", "result": "124 ± 30"}, {"measurement": "tissue to tissue ratio at 24 h", "setting": "tumor / kidney, 100 pmol, n = 4, read-out: Tumor-to-background ratio, Kidney", "result": "0.19 ± 0.01"}, {"measurement": "tissue to tissue ratio at 24 h", "setting": "tumor / liver, 100 pmol, n = 4, read-out: Tumor-to-background ratio, Liver", "result": "48.1 ± 6.7"}, {"measurement": "tissue to tissue ratio at 24 h", "setting": "tumor / lung, 100 pmol, n = 4, read-out: Tumor-to-background ratio, Lung", "result": "236 ± 118"}, {"measurement": "tissue to tissue ratio at 24 h", "setting": "tumor / muscle, 100 pmol, n = 4, read-out: Tumor-to-background ratio, Muscle", "result": "650 ± 542"}, {"measurement": "tissue to tissue ratio at 24 h", "setting": "tumor / pancreas, 100 pmol, n = 4, read-out: Tumor-to-background ratio, Pancreas", "result": "78.8 ± 17.5"}, {"measurement": "tissue to tissue ratio at 24 h", "setting": "tumor / spleen, 100 pmol, n = 4, read-out: Tumor-to-background ratio, Spleen", "result": "115 ± 15"}, {"measurement": "tissue to tissue ratio at 24 h", "setting": "tumor / stomach, 100 pmol, n = 4, read-out: Tumor-to-background ratio, Stomach", "result": "6.58 ± 2.77"}, {"measurement": "tissue uptake at 1 h", "setting": "[1]", "result": "0.52 ± 0.07", "unit": "%ID/g"}, {"measurement": "tissue uptake at 24 h", "setting": "[1]", "result": "0.37 ± 0.12", "unit": "%ID/g"}, {"measurement": "tissue uptake at 24 h", "setting": "adrenal, 100 pmol co-injected with DOTA-MGS5 (40 nmol), n = 2, read-out: Adrenal activity, competition studies", "result": "5.02 ± 4.64", "unit": "%ID/g"}, {"measurement": "tissue uptake at 1 h", "setting": "[2]", "result": "2.56 ± 0.6", "unit": "%ID/g"}, {"measurement": "tissue uptake at 24 h", "setting": "[2]", "result": "0.02 ± 0.01", "unit": "%ID/g"}, {"measurement": "tissue uptake at 24 h", "setting": "blood, 100 pmol co-injected with DOTA-MGS5 (40 nmol), n = 2, read-out: Blood activity, competition studies", "result": 0.02, "unit": "%ID/g"}, {"measurement": "tissue uptake at 1 h", "setting": "blood, heart and lung, 100 pmol, span over the three organs, read-out: Blood, heart and lung levels", "result": "0.9 to 2.6", "unit": "%ID/g"}, {"measurement": "tissue uptake at 24 h", "setting": "blood, heart and lung, 100 pmol, the three organs, read-out: Blood, heart and lung levels", "result": "< 0.2", "unit": "%ID/g"}, {"measurement": "tissue uptake at 1 h", "setting": "[3]", "result": "0.48 ± 0.02", "unit": "%ID/g"}, {"measurement": "tissue uptake at 24 h", "setting": "[3]", "result": "0.18 ± 0.03", "unit": "%ID/g"}, {"measurement": "tissue uptake at 1 h", "setting": "[4]", "result": "0.94 ± 0.02", "unit": "%ID/g"}, {"measurement": "tissue uptake at 24 h", "setting": "[4]", "result": "0.08 ± 0.02", "unit": "%ID/g"}, {"measurement": "tissue uptake at 24 h", "setting": "heart, 100 pmol co-injected with DOTA-MGS5 (40 nmol), n = 2, read-out: Heart activity, competition studies", "result": "0.08 ± 0.01", "unit": "%ID/g"}, {"measurement": "tissue uptake at 1 h", "setting": "[5]", "result": "0.61 ± 0.11", "unit": "%ID/g"}, {"measurement": "tissue uptake at 24 h", "setting": "[5]", "result": "0.21 ± 0.02", "unit": "%ID/g"}, {"measurement": "tissue uptake at 24 h", "setting": "intestine, 100 pmol co-injected with DOTA-MGS5 (40 nmol), n = 2, read-out: Intestine activity, competition studies", "result": "0.17 ± 0.06", "unit": "%ID/g"}, {"measurement": "tissue uptake at 1 h", "setting": "kidney, 100 pmol, 100 pmol, n = 4, read-out: Kidney activity", "result": "97.2 ± 14", "unit": "%ID/g"}, {"measurement": "tissue uptake at 24 h", "setting": "kidney, 100 pmol co-injected with DOTA-MGS5 (40 nmol), n = 2, read-out: Kidney activity, competition studies", "result": "193 ± 15", "unit": "%ID/g"}, {"measurement": "tissue uptake at 1 h", "setting": "[6]", "result": "1.15 ± 0.18", "unit": "%ID/g"}, {"measurement": "tissue uptake at 24 h", "setting": "[6]", "result": "0.53 ± 0.07", "unit": "%ID/g"}, {"measurement": "tissue uptake at 24 h", "setting": "liver, 100 pmol co-injected with DOTA-MGS5 (40 nmol), n = 2, read-out: Liver activity, competition studies", "result": "1.51 ± 0.02", "unit": "%ID/g"}, {"measurement": "tissue uptake at 1 h", "setting": "[7]", "result": "2.05 ± 0.2", "unit": "%ID/g"}, {"measurement": "tissue uptake at 24 h", "setting": "[7]", "result": "0.18 ± 0.15", "unit": "%ID/g"}, {"measurement": "tissue uptake at 24 h", "setting": "lung, 100 pmol co-injected with DOTA-MGS5 (40 nmol), n = 2, read-out: Lung activity, competition studies", "result": "0.76 ± 0.17", "unit": "%ID/g"}, {"measurement": "tissue uptake at 1 h", "setting": "[8]", "result": "0.38 ± 0.03", "unit": "%ID/g"}, {"measurement": "tissue uptake at 24 h", "setting": "[8]", "result": "0.08 ± 0.06", "unit": "%ID/g"}, {"measurement": "tissue uptake at 24 h", "setting": "muscle, 100 pmol co-injected with DOTA-MGS5 (40 nmol), n = 2, read-out: Muscle activity, competition studies", "result": "0.07 ± 0.04", "unit": "%ID/g"}, {"measurement": "tissue uptake at 1 h", "setting": "pancreas, 100 pmol, 100 pmol, n = 4, read-out: Pancreas activity", "result": "1.22 ± 0.21", "unit": "%ID/g"}, {"measurement": "tissue uptake at 1 h", "setting": "spleen, 100 pmol, 100 pmol, n = 4, read-out: Spleen activity", "result": "0.6 ± 0.08", "unit": "%ID/g"}, {"measurement": "tissue uptake at 24 h", "setting": "spleen, 100 pmol co-injected with DOTA-MGS5 (40 nmol), n = 2, read-out: Spleen activity, competition studies", "result": "0.95 ± 0.14", "unit": "%ID/g"}, {"measurement": "tissue uptake at 1 h", "setting": "stomach, 100 pmol, 100 pmol, n = 4, read-out: Stomach activity", "result": "4.25 ± 0.45", "unit": "%ID/g"}, {"measurement": "tissue uptake at 1 h", "setting": "tumor, 100 pmol, 100 pmol, n = 4, AR42J tumor, read-out: Tumor activity", "result": "24.1 ± 4.2", "unit": "%ID/g"}, {"measurement": "tissue uptake at 24 h", "setting": "tumor, 100 pmol co-injected with DOTA-MGS5 (40 nmol), n = 2, read-out: Tumor activity, competition studies", "result": "1.75 ± 0.26", "unit": "%ID/g"}]}]}
